{
  "source": "paper PMC7144234",
  "about": "“Antiproliferative chromone derivatives induce K562 cell death through endogenous and exogenous pathways” (Journal of Enzyme Inhibition and Medicinal Chemistry, 2020)",
  "key": {"[1]": {"test_system": "K562", "assay": "MTT antiproliferative assay, K562", "format": "cell-based, human", "conditions": "72 h, chronic myeloid leukaemia K562", "protocol": "(§1) The colorimetric MTT (3-(4,5-dimethylthiazol-2-yl)-2,5-diphenyltetrazolium bromide) assay was used to measure the cell viability of all of the above cell lines following treatment with target hybrids. Exponentially growing cells were added into 96-well plates at a concentration of 2000–4000 cells per well. Following attachment the cells were treated with varying concentrations (64, 16, 4, 1, 0.25, 0.0625 and 0.015625 µM) of target compounds in media and were kept for incubation for 72 h. MTT (20 µL, 5 mg/mL in PBS) was added to each well and the cells were incubated for another 3 h at 37 °C. Then the medium was removed, followed by the addition of 150 µL DMSO for each well. After that, the absorbance (OD) data of each well at 570 nm wavelength were measured by a Microplate Reader (BIO-RAD), and half inhibition rates (IC50) were calculated[59]^,[60]."}, "[2]": {"test_system": "B16", "assay": "MTT antiproliferative assay, B16", "format": "cell-based", "conditions": "72 h, melanoma B16", "protocol": "as §1"}, "[3]": {"test_system": "Bad", "assay": "Human Apoptosis Array kit, Bad expression in K562 cells", "format": "cell-based", "conditions": "K562, 2 µM, 24 h", "protocol": "(§2) The relative expression levels of 35 apoptosis-related proteins were evaluated using Human Apoptosis Array kit (R&D Systems, Abingdon, UK) in K562 cells. Proteins were extracted according to the manufacturer’s protocol from cells treated for 24 h with compound 15a (2 µM). The tool is fast, sensitive and economical, with 2.0 ml of array buffer added to each well, followed by array, The capture antibodies are retained in their specific locations, then incubated, transferred, diluted, added to Streptavidin-HRP, shaken. The platform shaker was incubated on the plate for 30 min, then the membrane was removed, 1 ml of the prepared Chemi Reagent Mix was evenly pipetted onto each membrane, incubated, the excess Chemi Reagent Mix was removed, and the membrane was placed in a self-developing film cartridge, exposed to X-ray film for 1–10 min. The positive signals seen on developed film can be quickly identified by placing the transparency overlay template on the array image and aligning it with the pairs of reference spots in three corners of each array. Creating templates, exporting files, averaging signals, finding backgrounds, comparing corresponding signals on the array to determine relative changes in apoptosis-related protein levels."}, "[4]": {"test_system": "HCT-116", "assay": "MTT antiproliferative assay, HCT-116", "format": "cell-based, human", "conditions": "72 h, colorectal carcinoma HCT-116", "protocol": "as §1"}, "[5]": {"test_system": "K562 cells", "assay": "Cell cycle analysis (PI staining, flow cytometry)", "format": "cell-based, human", "conditions": "72 h", "protocol": "The cells in the logarithmic growth phase were digested into six-well plates. The next day, cells were treated with different concentrations (0, 0.8, 1.6, 3.2 µM) of compound 15a. After 72 h, 5 × 10^5 cells were collected and fixed with a volume fraction of 70% ethanol for 2 h (or overnight), washed the fixative with PBS, added 100 µL RNase A in 37 °C water bath for 30 min, and finally 400 µL of PI stain was added, after 30 min under the dark at 4 °C, the cytometry was used to record the red fluorescence at the excitation wavelength of 488 nm, and the cell cycle distribution of the DNA content was evaluated."}, "[6]": {"test_system": "HtrA2", "assay": "Human Apoptosis Array kit, HtrA2 expression in K562 cells", "format": "cell-based", "conditions": "K562, 2 µM, 24 h", "protocol": "as §2"}, "[7]": {"test_system": "MCF-7", "assay": "MTT antiproliferative assay, MCF-7", "format": "cell-based, human", "conditions": "72 h, breast carcinoma MCF-7", "protocol": "as §1"}, "[8]": {"test_system": "HepG2", "assay": "MTT antiproliferative assay, HepG2", "format": "cell-based, human", "conditions": "72 h, hepatoma HepG2", "protocol": "as §1"}, "[9]": {"test_system": "L-02", "assay": "MTT assay, normal hepatic L-02 cell line", "format": "cell-based", "conditions": "72 h, human normal hepatic L-02 cell line", "protocol": "as §1"}, "[10]": {"test_system": "PBMC", "assay": "MTT assay, peripheral blood mononuclear cells", "format": "cell-based, human", "conditions": "72 h", "protocol": "as §1"}, "[11]": {"test_system": "Catalase", "assay": "Human Apoptosis Array kit, catalase expression in K562 cells", "format": "cell-based", "conditions": "K562, 2 µM, 24 h", "protocol": "as §2"}, "[12]": {"test_system": "K562 cells", "assay": "Hoechst 33258 staining, morphological analysis", "format": "cell-based, human", "protocol": "K562 cells were incubated with different concentrations (0, 0.8, 1.6 and 3.2 µM) of 15a for a period of time, the medium containing the compound was removed, the cell smear was naturally dried, and immersed in 4% paraformaldehyde for 30 min or overnight to improve cell permeability, then soaked in PBS, washed for three times, added appropriate amount of Hoechst 33258 staining solution, fully covered, allowed to stand at room temperature for 10 min, finally immersed in PBS again, washed three times and sealed. Anti-fluorescence quenching after the liquid was sealed, the staining results were observed under a fluorescence microscope."}, "[13]": {"test_system": "Bax", "assay": "Human Apoptosis Array kit, Bax expression in K562 cells", "format": "cell-based", "conditions": "K562, 2 µM, 24 h", "protocol": "as §2"}, "[14]": {"test_system": "K562 cells", "assay": "Cell apoptosis assay (Annexin V-FITC/PI, flow cytometry)", "format": "cell-based, human", "conditions": "72 h", "protocol": "[…] 500 µL of binding buffer suspension cells, 5 µL of Annexin V-FITC, and 5 µL of PI were mixed incubated at room temperature, protected from light, and reacted for 5–15 min, then analysed with flow cytometry instrument to detect cell apoptosis."}, "[15]": {"test_system": "Claspin", "assay": "Human Apoptosis Array kit, claspin expression in K562 cells", "format": "cell-based", "conditions": "K562, 2 µM, 24 h", "protocol": "as §2"}},
  "data": [
    {"substance": "4-((1-(6-Methoxy-4-oxo-4H-chromene-3-carboxamido)propan-2-yl)oxy)-3-(phenylsulfonyl)-1,2,5-oxadiazole 2-oxide [15a]", "values": [
      {"measurement": "IC50", "setting": "[1]", "result": "1610 ± 180", "unit": "nM"},
      {"measurement": "IC50", "setting": "[2]", "result": "9.72 ± 0.52", "unit": "µM"},
      {"measurement": "expression of Bad compared to the control", "setting": "[3]", "result": "increased expression"},
      {"measurement": "IC50", "setting": "[4]", "result": "6.74 ± 0.9", "unit": "µM"},
      {"measurement": "cells in G1 phase", "setting": "[5]; K562, 0.8 µM", "result": 48.84, "unit": "%"},
      {"measurement": "cells in G2 phase", "setting": "[5]; K562, 0.8 µM", "result": 10.71, "unit": "%"},
      {"measurement": "cells in S phase", "setting": "[5]; K562, 0.8 µM", "result": 40.45, "unit": "%"},
      {"measurement": "cells in G1 phase", "setting": "[5]; K562, 1.6 µM", "result": 41.43, "unit": "%"},
      {"measurement": "cells in G2 phase", "setting": "[5]; K562, 1.6 µM", "result": 11.89, "unit": "%"},
      {"measurement": "cells in S phase", "setting": "[5]; K562, 1.6 µM", "result": 46.68, "unit": "%"},
      {"measurement": "cells in G1 phase", "setting": "[5]; K562, 3.2 µM", "result": 36.21, "unit": "%"},
      {"measurement": "cells in G2 phase", "setting": "[5]; K562, 3.2 µM", "result": 13.51, "unit": "%"},
      {"measurement": "cells in S phase", "setting": "[5]; K562, 3.2 µM", "result": 50.28, "unit": "%"},
      {"measurement": "expression level of HtrA2", "setting": "[6]", "result": "increased the expression levels"},
      {"measurement": "IC50", "setting": "[7]", "result": "13.7 ± 0.33", "unit": "µM"},
      {"measurement": "IC50", "setting": "[8]", "result": "4.86 ± 0.39", "unit": "µM"},
      {"measurement": "IC50", "setting": "[9]", "result": "36.9 ± 0.62", "unit": "µM"},
      {"measurement": "IC50", "setting": "[10]", "result": "> 50", "unit": "µM"},
      {"measurement": "expression of Catalase", "setting": "[11]", "result": "up-regulated"},
      {"measurement": "cell morphology after Hoechst 33258 staining", "setting": "[12]; K562, 3.2 µM", "result": "cell membranes were ruptured and the nuclei were fragmented"},
      {"measurement": "cell morphology after Hoechst 33258 staining", "setting": "[12]; K562, 0.8 and 1.6 µM", "result": "typical apoptotic morphology"},
      {"measurement": "expression of Bax compared to the control", "setting": "[13]", "result": "increased expression"},
      {"measurement": "apoptotic rate", "setting": "[14]; K562, 0.8 µM", "result": 16.28, "unit": "%"},
      {"measurement": "apoptotic rate", "setting": "[14]; K562, 1.6 µM", "result": 20.56, "unit": "%"},
      {"measurement": "apoptotic rate", "setting": "[14]; K562, 3.2 µM", "result": 51.87, "unit": "%"},
      {"measurement": "expression of Claspin", "setting": "[15]", "result": "increased"}
    ]}
  ]
}
